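Step 1: Grow cells in 96-well plates. Step 2: Expose to compound for 48 hours at 5 concentrations. Step 3: Interpolate endpoints linearly; if unreached, use highest concentration. GI50 is the concentration that inhibits growth by half.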 The source made the active and inactive calls. Rule as the data show it: active = GI50 up to about 1.1 µM and inactive = higher. Starred links: 1 amine or outer side, 2 acyl side, 3 side chain; linkers in the order of their positions; H or OH if unused. Positions of bridges follow the written chain, without caps; N, C: chain ends. Non-standard residues stand in square brackets, D forms with d. Residues, ends and D or L forms follow the SMILES beside them. Chains are numbered I, II in the order given. Actinocin(1to9) = Cc1c2oc3c(C)ccc(C(=O)[*:2])c3nc-2c(C(=O)[*:1])c(N)c1=O; NMeV = CN[CH](C(=O)O)C(C)C; Sar = CNCC(=O)O
Legend:
Assay in all cases: DTP human tumour cell line panel, 48 h
MDA-MB-231 = test system: MDA-MB-231
SF-268 = test system: SF-268
IGROV-1 = test system: IGROV-1
LOX IMVI = test system: LOX IMVI
HCC 2998 = test system: HCC 2998
ACHN = test system: ACHN
CCRF-CEM = test system: CCRF-CEM
SK-OV-3 = test system: SK-OV-3
Malme-3M = test system: Malme-3M
K562 = test system: K562
HT-29 = test system: HT-29
SF-295 = test system: SF-295
U-251 = test system: U-251
SR = test system: SR
HOP-92 = test system: HOP-92
NCI-H522 = test system: NCI-H522
NCI-H23 = test system: NCI-H23
OVCAR-8 = test system: OVCAR-8
OVCAR-4 = test system: OVCAR-4
MCF7 = test system: MCF7

For O=C(NCc1ccccc1)c1cc2ccccc2o/c1=N\c1cccc(C(F)(F)F)c1, the GI50 (MDA-MB-231) was 75.7 µM (inactive), the GI50 (SF-268) was > 100 µM (inactive) and the GI50 (IGROV-1) was 81.3 µM (inactive). The GI50 (LOX IMVI) was 35.6 µM (inactive), the GI50 (HCC 2998) was 21.2 µM (inactive) and the GI50 (ACHN) was 46.3 µM (inactive). The GI50 (CCRF-CEM) was 45.1 µM (inactive), the GI50 (SK-OV-3) was > 100 µM (inactive) and the GI50 (Malme-3M) was 48.1 µM (inactive). The GI50 (K562) was 36.5 µM (inactive), the GI50 (HT-29) was 35.9 µM (inactive) and the GI50 (SF-295) was 51.3 µM (inactive). The GI50 (U-251) was 71 µM (inactive), the GI50 (SR) was 21.1 µM (inactive) and the GI50 (HOP-92) was 75.2 µM (inactive). For the same molecule, the GI50 (NCI-H522) was 39 µM (inactive), the GI50 (NCI-H23) was 57.7 µM (inactive) and the GI50 (OVCAR-8) was 56.1 µM (inactive). For the same molecule, the GI50 (OVCAR-4) was 69.7 µM (inactive) and the GI50 (MCF7) was 42.5 µM (inactive).
With O=C1CC(n2cccc2)c2c(Br)sc(Br)c21 (stereo not given) the GI50 (MDA-MB-231) was 15.7 µM (inactive), the GI50 (SF-268) was 14.8 µM (inactive) and the GI50 (IGROV-1) was 16.2 µM (inactive). For the same molecule, the GI50 (LOX IMVI) was 6.73 µM (inactive), the GI50 (HCC 2998) was 15.4 µM (inactive) and the GI50 (ACHN) was 17.5 µM (inactive). The GI50 (CCRF-CEM) was 6.35 µM (inactive), the GI50 (SK-OV-3) was 19.4 µM (inactive) and the GI50 (Malme-3M) was 18.5 µM (inactive). For the same molecule, the GI50 (K562) was 14.5 µM (inactive), the GI50 (HT-29) was 16.6 µM (inactive) and the GI50 (SF-295) was 23.3 µM (inactive). The GI50 (U-251) was 15.2 µM (inactive), the GI50 (SR) was 3.89 µM (inactive) and the GI50 (HOP-92) was 16.1 µM (inactive). The GI50 (NCI-H522) was 1.49 µM (inactive), the GI50 (NCI-H23) was 13.6 µM (inactive) and the GI50 (OVCAR-8) was 15.2 µM (inactive). For the same molecule, the GI50 (OVCAR-4) was 16.7 µM (inactive) and the GI50 (MCF7) was 12 µM (inactive).
In the case of CCC(C)C1NC(=O)C(NC(=O)c2c3nc4c(C(=O)NC5C(=O)NC(C(C)CC)C(=O)N6CCCC6C(=O)N(C)CC(=O)N(C)C(C(C)C)C(=O)OC5C)ccc(C)c4oc-3c(C)c(=O)c2N)C(C)OC(=O)C(C(C)C)N(C)C(=O)CN(C)C(=O)C2CCCN2C1=O (stereo not given) (I: TIP[Sar][NMeV] / II: TIP[Sar][NMeV]; ester I:1-I:C, II:1-II:C; linker I:N-II:N via Actinocin(1to9); configuration not given here), the GI50 (MDA-MB-231) is reported as 0.00561 µM (active), the GI50 (SF-268) is reported as 0.00322 µM (active) and the GI50 (IGROV-1) is reported as < 0.0001 µM (active). For the same molecule, the GI50 (LOX IMVI) was < 0.0001 µM (active), the GI50 (HCC 2998) was 0.013 µM (active) and the GI50 (ACHN) was 0.00162 µM (active). For the same molecule, the GI50 (CCRF-CEM) was < 0.0001 µM (active), the GI50 (SK-OV-3) was 0.0208 µM (active) and the GI50 (Malme-3M) was 0.000156 µM (active). For the same molecule, the GI50 (K562) was < 0.0001 µM (active), the GI50 (HT-29) was < 0.0001 µM (active) and the GI50 (SF-295) was 0.000477 µM (active). For the same molecule, the GI50 (U-251) was < 0.0001 µM (active), the GI50 (SR) was < 0.0001 µM (active) and the GI50 (HOP-92) was 0.00255 µM (active). The GI50 (NCI-H522) was < 0.0001 µM (active), the GI50 (NCI-H23) was 0.00133 µM (active) and the GI50 (OVCAR-8) was 0.000262 µM (active). The GI50 (OVCAR-4) was 0.00625 µM (active) and the GI50 (MCF7) was < 0.0001 µM (active).
